This is an account of results in patent publication US20180074077A1, “A METHOD FOR MEASURING THE PROTEASE ACTIVITY OF FACTOR D OF THE ALTERNATIVE COMPLEMENT PATHWAY” (priority 2015, published 2018).

For one data set, the target named is T1, Factor D (Homo sapiens, UniProt P00746).
T1 construct: purchased COMPTECH (Tyler Tex.)
Kind of data set: BLI biosensor assay of Factor D cleavage of Factor B, anti-Bb antibody binding. Format: biochemical.

A further data set has as its system C5 convertase. Kind of data set: C5 convertase activity on bio-C3b spheres, C5a measured with ECL assay. Format: biochemical. The settings on record: for ECL signal (amount of C5a produced by C5 convertase): C5 100 nM, 60 min. As to the method:
The bio-C3b binding to streptavidin was performed in a 2.0 ml micro-centrifuge tube. Two hundred and forty μg of SPHEROTECH beads, 0.3 mm diameter. Streptavidin coated spheres were first washed by centrifugation with 300 μL of 10 mM Tris, pH 8, and then resuspended in 200 μL of 10 mM Tris, pH 8. The spheres were incubated with bio-C3b or C3b at a concentration of 320 nM. Spheres were suspended by gentle shaking at 1350 RPM for 20 minutes at room temperature, and collected by centrifugation at 16 RCF for 10 minutes. The residual supernatant was removed and the beads were then washed to remove residual unbound bio-C3b.
C5 convertase was formed on the spheres by incubating the bio-C3b spheres with a Convertase Solution that included components of the AP, a divalent cation and buffer. The Convertase Solution consisted of Factor D, (10 nM), Factor B (400 nM), and NiCl2 (200 μM) in 10 mM Tris, pH 8.0. The spheres were suspended by gentle shaking at 1350 RPM for 20 minutes at 37° C. The spheres were centrifuged at 16×g (RCF) for 10 minutes, the supernatant is removed, and the spheres are resuspended in 1.2 ml of 10 mM Tris pH 8, 1 mM EDTA to a final concentration of 200 μg/ml.
Formation of C5a was accomplished by incubating C5, and the spheres in a Reaction Solution that included a divalent cation. The Reaction Solution was prepared by transferring to a microplate well: (i) 2 μg of spheres with C5 convertase in 10 μl of the Convertase Solution; (ii) 20 μL of a 500 μM NiCl2 solution; and (iii) 20 μL of a 250 nM solution of C5 (5 pmoles). […] Following the incubation, the reaction was stopped by adding 10 μL of a 500 mM EDTA in 10 mM Tris, pH=8.0; (Total Volume=60 μl).
The amount of C5a in the Reaction Solution was measured with an Elisa-like assay, similar to an ELISA. The neo-epitope anti-C5a antibody, BNJ383, captured soluble C5a, binding it to a well in a microplate. BNJN383 has a high affinity for C5a but a low affinity for C5. The detection reagent was a mouse anti-C5a antibody that binds the C5a captured on the plate, and a SULFO-TAG™ modified anti-mouse secondary antibody that bound the mouse antibody, and generated an ECL signal.
To wells of a high binding 96-well microplate (MSD Catalog No. L15XB-3) was added BNJ383 (0.3 pmoles,) 2 μg/mL in 25 μL of a carbonate-bicarbonate buffer at pH 9.4. The microplate was sealed and incubated at 37′C for 60 minutes. […]
The wells were sealed with a foil seal and incubated in the dark for 30 minutes. […] One hundred and fifty μL of 2×MSD Read Buffer containing tripropylamine as an electron carrier was added to the wells using a negative pipetting technique. The microplate was read on an MSD imager to measure the ECL signal generated by the SULFO-TAG™ affixed to the goat secondary antibody. […]

T1 sequence (P00746 26-253): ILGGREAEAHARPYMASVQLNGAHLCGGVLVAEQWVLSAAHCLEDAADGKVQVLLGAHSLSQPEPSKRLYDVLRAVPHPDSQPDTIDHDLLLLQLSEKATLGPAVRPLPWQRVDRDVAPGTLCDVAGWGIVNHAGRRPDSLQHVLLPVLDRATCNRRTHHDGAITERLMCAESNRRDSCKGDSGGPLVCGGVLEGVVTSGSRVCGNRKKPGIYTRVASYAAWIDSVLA
Experimental for Factor D: All measurements were recorded on an OCTET® RED System set to the advanced quantitation mode. The biosensors were SA-Streptavidin DIP AND READ™ configured to a 96-well microplate format (FORTEBIO). All loading volumes were 200 μl.
Eight streptavidin-coated biosensors were incubated with bio-C3b (10 μg/ml), and Factor B (0.6 μM) in Kinetics Buffer with 1 mM NiCl2 for 6 minutes.
To form bio-C3b/Bb, each biosensor was loaded with a mixture of BioC3b (10 μg/mL), factor B (600 nM) and Ni^2+ (1 mM) in Kinetics Buffer. […] The incubation time was 2 minutes.
The presence of Bb on the biosensor was detected by loading the biosensors with 55 nM of an anti-Bb antibody (Quidel, A227) and 55 nM Goat anti-mouse secondary antibody in Kinetics Buffer. The incubation time was 2 minutes.
From time 0 to about 360 seconds (˜6 minutes), the 269 kDa bio-C3b/Factor B complex formed on the streptavidin coated biosensor. […] From about 360 to about 480 seconds (˜2 minutes), Factor D cleaved Factor B into fragments Ba and Bb. […] The binding of the 300 kDa primary and secondary antibody complex to the Bb fragment was recorded as a positive wavelength shift from about 600 to 720 seconds (˜2 minutes).

Regarding `O=c1oc(Cl)c(Cl)c2ccccc12` [DCIC, 3,4-Dichloroisocoumarin], on Factor D (DCIC 23 μM and 35 μM), the “Effect on Factor D activity (in words)” value was “minimal effect”. Further, at Factor D (DCIC 178 μM, 267 μM and 400 μM), the “Inhibition of Factor D (in words)” value is “maximally inhibited”.

Turning to “OmCI: tick saliva complement inhibitor, a C5 binding protein”, in the data set with C5 convertase (OmCI 50 nM), the “Effect on convertase activity (in words)” value is recorded as “essentially no effect” and the “ECL signal (amount of C5a produced by C5 convertase)” value was 40,000. Moreover, in the data set on C5 convertase (OmCI 100 nM), the “drop of ECL signal” value is 8 fold and the “ECL signal (amount of C5a produced by C5 convertase)” value is 5000.
